Reference: patent US20210353517A1, “PROCESS FOR PRODUCING A BIO-BASED SURFACTANT” (University College Dublin, priority 2018, published 2021)

Key:
Format in all cases: physicochemical
[1] = Foaming stability; conditions: 10 s stirring at 1500 rpm, at respective CMC values
[2] = Critical micelle concentration by conductivity assay; conditions: conductivity at 25° C., relative to SDS
Protocol: Critical micelle concentration was estimated by a conductivity assay. In this assay a pen type EC-963 model conductivity meter tester was submerged into a milliQ® grade deionised water solution to have a zero reading of pS/cm. Increasing amounts of different surfactant solutions was added to this milliQ® water solution and the conductivity was measured at 25° C. The increasing conductivity is proportional to the surfactant activity. The change of slope in the two linear interpolating curves is an indication of the critical micelle concentration (CMC) point for the specific surfactant (Al-Soufi et al 2012).

[3] = Drop shape analysis (wettability, dynamic contact angle); conditions: solution at its CMC added to 20 μL deionised water drop
Protocol: The dynamic behaviour of a 20 μL deionised water drop after the addition of an equal volume of surfactant solution at critical micelle concentration was recorded with a video recording system and analysed by a dedicated plug-in (LB-ADSA) of ImageJ® software for image analysis. The sessile drop is positioned on a smooth and plan surface of a borosilicate glass slide without any microdefects. A contour recognition is initially carried out based on a grey-scale analysis of the image. In the second step, a geometrical model describing the drop shape is fitted to the contour. The contact angle is the angle between the calculated drop shape function and the sample surface.

[4] = Surface tension analysis (DuNOUY ring tensiometer); conditions: at parity of concentration (w/v), 25° C., relative to SDS
Protocol: Surface tension analysis was performed with an interfacial tensiometer Cenco DuNOUY® 70545 model. In this methodology, a ring-shaped steel tool is pulled up from a surfactant solution and the corresponding millinewton per meter (mN/m) of force applied to break the surface tension is indicated. Increasingly diluted surfactant solutions are measured until the reference value of deionised water is reached (72 mN/m). The measurements were performed at 25° C.

- foam decrease in volume over time [1]: 2 fold
- foam decrease slower than SDS [1]: 3 times
- foaming volume higher than SDS [1]: 1.5 fold
- outperformance of SDS at the specific CMC concentration (change of slope point of conductivity) [2]: 3.5 fold
- wettability (speed at which the contact angle of a water drop is broken) versus SDS [3]: higher that the SDS solution
- surface tension value better than sodium dodecyl sulfate (SDS) [4]: 4 fold
Structure (SMILES): CCCCCCCCCC(CCOS(=O)(=O)O)OS(=O)(=O)O (stereo not drawn) [dodecyl (1,3) disulfate]
